Structures are written as SMILES.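 96-well plates; 48 h exposure; 5 concentrations. Endpoints by linear interpolation between flanking doses. Not reached: highest tested concentration assigned. GI50 is the concentration that inhibits growth by half. TGI: concentration producing complete growth inhibition.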 A value given as a limit tells only on which side of the number the result lay.

Common to all, as to assay: NCI tumour cell line growth inhibition, 48 h
The test system of assay [1] is CCRF-CEM leukemia.
For assay [2], the system named is HCC-2998 colon.
In assay [3] the test system is HCT-15 colon.
The test system of assay [4] is HOP-92 NSCLC.
Assay [5] has as its system HS 578T breast.
In assay [6] the test system is IGROV1 ovarian.
The subject of assay [7] is MOLT-4 leukemia.
Assay [8] concerns RXF 393 renal.
For assay [9], the system named is SK-OV-3 ovarian.
Assay [10] has as its system SW-620 colon.

`COc1cc(C(c2cccc3ccccc23)N2C(=O)CCC2C(=O)NCc2ccccc2)cc(OC)c1OC` (centres undefined): the TGI in [1], in assay [2], in [3], in assay [4], in assay [5] and in assay [6] was above 100 µM each time. Besides, the TGI in assay [7], in assay [8], in [9] and in assay [10] was above 100 µM in each case.
As for `OC(CCN1CCN(CCOC(c2ccccc2)c2ccccc2)CC1)c1ccc(Br)cc1` (centres undefined), the TGI in [1] stood at 45.3 µM; in [2], 3.96 µM; in [3] it was 19.3 µM; in assay [4], 25.1 µM; in assay [5], 42.8 µM; in assay [6], 24.7 µM. For the same molecule, the results for the TGI in [8], in [9] and in assay [10] were 22.9 µM, 27 µM and 44.5 µM, respectively.
As to `COc1ccc2c(c1)CC1Cc3ccccc3CCN1C2` (centres undefined), the TGI in [1], in assay [2], in [3], in assay [4], in [5] and in assay [6] was above 100 µM throughout. The TGI in assay [7], in assay [8], in [9] and in assay [10] was above 100 µM each time.
Consider `Nc1ccc(-c2nc3ccc(F)cc3s2)cc1`, for which the TGI in [1] was above 100 µM; in [2], 45.3 µM; in assay [3], above 100 µM; in assay [4], above 100 µM; in [5], above 100 µM; in assay [6], 71.9 µM. For the same molecule, the TGI in [7] and in assay [10] was above 100 µM in each case. Besides, the GI50 in [2] was 17.8 µM; in [6], 21.3 µM.
Regarding `CN(CCc1ccc(Cl)c(Cl)c1)CCN(C)CCN1CCCC1`, the TGI in assay [1] turned out to be 14.6 µM; in assay [2], 4.5 µM; in [3], 38.4 µM; in [4], 16 µM; in assay [5] it was 46.3 µM; in [6] it was 43.7 µM. Further, the TGI was determined as 20.1 µM in assay [7], 26.6 µM in [8], 54.3 µM in assay [9] and 31.2 µM in [10].
Consider `CCOP(=O)(OCC)C1(O)CC(n2cc(C)c(=O)[nH]c2=O)OC1CO` (centres undefined), for which the TGI in [2], in assay [3], in [4], in assay [5], in [6] and in [8] was above 100 µM throughout. Moreover, the TGI in [9] and in [10] was above 100 µM each time.
Turning to `CC(C)(C)c1cc(C(=O)/C=C/c2ccn[nH]2)cc(C(C)(C)C)c1O`, the TGI is 5.97 µM in assay [1]; 3.37 µM in assay [2]; 4.71 µM in assay [3]; 5.53 µM in assay [4]; 9.22 µM in assay [5]; 3.97 µM in assay [6]. Besides, the TGI in assay [7] stood at 10.1 µM; in assay [8], 3.19 µM; in assay [9], 31.7 µM; in assay [10] it was 6.27 µM.
Regarding `c1csc(-c2csc(-c3ccsc3)c2)c1`, the TGI in assay [1], in assay [2], in assay [3], in assay [4], in assay [5] and in [6] was above 100 µM each time. Also, the TGI in assay [7], in [8], in assay [9] and in [10] was above 100 µM throughout.
For the molecule `CNC(=S)N/N=C(\C)c1nc2ncccc2[nH]1`, the TGI was above 100 µM in assay [1]; above 100 µM in assay [2]; above 100 µM in assay [3]; above 100 µM in [4]; above 84.3 µM in [5]; above 100 µM in [6]. The TGI in assay [7], in assay [8], in assay [9] and in assay [10] was above 100 µM in each case.
Turning to `O/N=C1\CCc2nonc2\C1=N/Nc1ccccc1`, the TGI in [1], in [2], in assay [3], in assay [4], in [5] and in assay [6] was above 100 µM in each case. The TGI in [7], in [8], in assay [9] and in [10] was above 100 µM each time.
Take `N=C(N)SCCCN`: the TGI was 9.2 µM in [1]; 20.3 µM in assay [2]; above 100 µM in [3]; above 40.6 µM in assay [4]; 43.5 µM in assay [5]; 15.6 µM in assay [6]. In addition, the TGI in assay [7] is 3.16 µM; in assay [8], 26 µM; in [9] it was 73.4 µM; in assay [10] it was above 100 µM.
For `N#Cc1c(Nc2nc3ccccc3s2)c2ccccc2n2c1nc1ccccc12`, the TGI in [2], in [3], in assay [4], in assay [5], in assay [6] and in assay [7] was above 100 µM each time. For the same molecule, the TGI in [10] is above 100 µM.
For the molecule `Cc1ccc(S(=O)(=O)c2ccc([N+](=O)[O-])o2)cc1`, the TGI in assay [1] was 1.21 µM; in [2], 13.1 µM; in assay [3] it was 2.83 µM; in [4], 4.32 µM; in assay [5] it was 13.4 µM; in assay [6] it was 3.37 µM. The TGI was above 100 µM in assay [7], 3.33 µM in assay [8], 35.2 µM in assay [9] and 1.73 µM in assay [10].

Values taken from PubChem BioAssay (NCI).
